Experimental data as given in patent publication US20210395313A1, “PEPTIDE PAC1 ANTAGONISTS” (AMGEN INC., priority 2017, published 2021).
Bridges are numbered along the chain shown (N, C = ends). Where no end group is shown, it is not given here.

Experiments:
[1] = in vitro; settings: rat, plasma
Description: (§1) To model degradation in blood, PAC1 peptides of the present application were incubated in vitro with rat plasma. The stability analysis was conducted in a manner similar to as previously described by Souverain et al. (J. of Pharmaceutical and Biomedical Analysis, 35 (2004) 913-920).
(§2) Briefly, PAC1 peptides were spiked into rat plasma and incubated at 37° C. for up to 6 hours. Employing the reverse stability technique for various time points, plasma samples were quenched by the addition of perchloric acid in water containing internal standard (IS) and vortexed undergoing protein precipitation extraction (PPE). Following the vortex mix, samples were centrifuged and the supernatant containing PAC1 peptide and IS was subsequently analyzed using a liquid chromatography mass-spectrometry (LC-MS) system (Sciex® API 5500). The peak area ratio of intact PAC1 peptide to IS was determined for each time point. Peptide stability was reported as a percentage of the peak area ratio at each time point relative to the peak are ratio of a baseline sample (pre-incubation).

[2] = molecular target: T1, human PAC1 receptor (Homo sapiens, UniProt P41586); assay: LANCE Ultra cAMP accumulation antagonist assay in SHSY-5Y cells; assay type: cell-based;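 also: inhibition of cAMP accumulation evoked by PAC1 agonist at its EC80 in SHSY-5Y cells endogenously expressing receptor, 30 min preincubation then 15 min agonist, TR-FRET readout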
T1 construct: SHSY-5Y (human neuroblastoma cell line) and RG-2 (rat glioma cell line) cells endogenously express human and rat PAC1 receptors, respectively; endogenous in cells; host or cells: SHSY-5Y human neuroblastoma cells
T1 sequence (P41586 21-468): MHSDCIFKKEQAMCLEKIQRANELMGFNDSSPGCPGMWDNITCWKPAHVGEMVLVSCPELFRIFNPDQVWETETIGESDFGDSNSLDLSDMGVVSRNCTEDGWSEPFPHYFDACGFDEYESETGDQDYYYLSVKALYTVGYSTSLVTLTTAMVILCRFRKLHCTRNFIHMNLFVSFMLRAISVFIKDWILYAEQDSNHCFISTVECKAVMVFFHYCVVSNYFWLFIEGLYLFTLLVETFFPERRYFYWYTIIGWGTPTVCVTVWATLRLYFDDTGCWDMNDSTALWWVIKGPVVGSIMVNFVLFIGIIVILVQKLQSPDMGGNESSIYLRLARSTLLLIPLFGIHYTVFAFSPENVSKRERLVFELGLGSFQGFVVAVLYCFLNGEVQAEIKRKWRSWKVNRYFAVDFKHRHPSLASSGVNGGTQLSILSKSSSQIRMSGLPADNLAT

[3] = molecular target: T2, rat PAC1 receptor (Rattus norvegicus, UniProt P32215); assay: LANCE Ultra cAMP accumulation antagonist assay in RG-2 cells; assay type: cell-based;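 also: RG-2 rat glioma cells endogenously expressing PAC1, test peptide preincubated 30 min, then PAC1 agonist added at its EC80 for 15 min, cAMP accumulation read by LANCE Ultra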
T2 construct: SHSY-5Y (human neuroblastoma cell line) and RG-2 (rat glioma cell line) cells endogenously express human and rat PAC1 receptors, respectively; endogenous in cells; host or cells: RG-2 rat glioma cells
T2 sequence (P32215 20-523): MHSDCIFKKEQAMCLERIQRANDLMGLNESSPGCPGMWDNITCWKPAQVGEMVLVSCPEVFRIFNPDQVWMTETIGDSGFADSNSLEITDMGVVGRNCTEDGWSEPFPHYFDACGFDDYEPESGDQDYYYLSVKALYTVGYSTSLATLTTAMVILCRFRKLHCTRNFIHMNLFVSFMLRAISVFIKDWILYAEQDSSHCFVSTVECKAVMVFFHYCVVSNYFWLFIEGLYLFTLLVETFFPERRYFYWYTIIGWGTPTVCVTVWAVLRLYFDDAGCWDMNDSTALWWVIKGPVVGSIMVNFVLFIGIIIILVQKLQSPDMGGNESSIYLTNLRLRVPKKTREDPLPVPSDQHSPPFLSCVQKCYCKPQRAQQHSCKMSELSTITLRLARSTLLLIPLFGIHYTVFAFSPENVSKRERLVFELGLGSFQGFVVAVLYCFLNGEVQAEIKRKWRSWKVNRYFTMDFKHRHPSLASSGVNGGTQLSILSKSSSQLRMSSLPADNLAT

[4] = rat plasma, 37° C., 0 h (baseline)
Description: as §1, §2

[5] = molecular target: T3, PAC1 (Rattus norvegicus, UniProt P32215); assay: Rat maxadilan-induced increase in blood flow (MIIBF) PD model, laser Doppler imaging; assay type: in vivo; settings: for inhibition of maxadilan-induced increase in DBF: single bolus s.c., lowest dose of 0.3 mg/kg, 15 min prior to maxadilan, 45 min post peptide treatment
T3 construct: Naive male Sprague Dawley® rats aged 8-12 weeks at the time of the study were purchased from Charles River Laboratories; tissue Charles River Laboratories; host or cells: live male Sprague Dawley rats; dermal blood flow on abdominal skin
T3 sequence (P32215 20-523): T2 sequence (P32215 20-523)
Description: PAC1 peptide antagonists were also evaluated in an in vivo pharmacodynamic model—a model of maxadilan-induced increase in blood flow.
Naive male Sprague Dawley® rats aged 8-12 weeks at the time of the study were purchased from Charles River Laboratories. Animals were group-housed in non-sterile, ventilated micro-isolator housing in Amgen Assessment and Accreditation of Laboratory Animal Committee (AAALAC)-accredited facility. Animals had ad libitum access to pelleted feed (Harlan Teklad 2020X, Indianapolis, IN) and water (on-site generated reverse osmosis) via automatic watering system.
All PAC1 peptides were tested in a rat maxadilan-induced increase in blood flow (MIIBF) pharmacodynamic (PD) model with a laser Doppler imaging. A dosing solution of maxadilan (Bachem, H6734.0500) was prepared fresh daily by diluted maxadilan stock solution (0.5 mg/mL) in 1× PBS to the final concentration of 0.5 μg/mL. All tested peptides were prepared in 1× PBS at different concentrations depend on the dose required for the experiment and given in a single bolus i.v. or s.c. injection. A laser Doppler imager (LDI-2, Moor Instruments, Ltd, Wilmington, Del.) was used to measure dermal blood flow (DBF) on the shaved skin of the rat abdomen with a low-power laser beam generated by a 633 nm helium-neon bulb. The measurement resolution was 0.2 to 2 mm, with scanning distances between the instrument aperture and the tissue surface of 30 cm. In this report, DBF was measured and expressed as % change from baseline [100×(individual post-CAP flux-individual baseline flux)/individual baseline flux] and further calculated to % Inhibition to quantify the magnitude of drug effect [Mean of vehicle % change from BL−individual drug treated rat % change from BL)/Mean of vehicle % change from BL].
On the test day, following anesthetization with propofol, the rat's abdominal area was shaved and each animal was placed in a supine position on a temperature-controlled circulating warm-water pad to maintain a stable body temperature during the study. After a 10 to 15 minute stabilization period, a rubber O-ring (0.925 cm inner diameter, O-Rings West, Seattle, Wash.) was placed on the rat abdomen without directly positioning it over a visible blood vessel while the rat placed in a supine position on a temperature-controlled circulating warm-water pad to maintain a stable body temperature during the study. After placement of an O-ring on the selected area, a baseline (BL) DBF measurement was taken. After the BL scan, PAC1 peptides were administrated either 5 min for i.v., or 15 min for s.c. then followed by 20 μL (in 0.5 μg/mL) intradermal injection of maxadilan at the center of the O-ring. The post-maxadilan DBF was measured at 30 min and the post peptides time was 35 min for i.v. and 45 min for s.c. respectively. The O-ring serves as an area of interest in which the DBF will be analyzed within the O-ring.
All DBF results were expressed as the mean±SEM. A one-way ANOVA followed by Dunnett's Multiple Comparison Test (MCT) was used to assess the statistical significance of PAC1 peptides effects relative to the vehicle within the study. A p<0.05 was used to determine significance between any two groups.

[6] = molecular target: T4, rat PAC1 receptor (rat, UniProt P32215 20-523); assay: cell-based or functional assay
T4 sequence: T2 sequence (P32215 20-523)
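For % Intact Peptide Remaining in this document: peptides incubated in vitro in rat plasma at 37 °C up to 6 h, intact peptide quantified by LC-MS versus internal standard, expressed relative to pre-incubation baseline (100%).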

## CDATCQFRKAIDDCARQAHHSNVPGSVFKACMKQKKKEWKAGH (disulfide 1-5, 14-31) [SEQ ID NO 151]
[1]
  remaining at 0.5 h: 120%
  remaining at 1 h: 87%
  remaining at 2 h: 104%
  remaining at 4 h: 112%
  remaining at 6 h: 107%
[2]
  IC50: 0.01 to 1 nM
[3]
  IC50: 0.01 to 1 nM
[4]
  % Intact Peptide Remaining: 100%

## GCDATCQFRKAIDDCVRQAHHSNVPGSVFKACMKQKKKEWKAGH (disulfide 2-6, 15-32) [SEQ ID NO 88]
[1]
  remaining at 0.5 h: 81.4%
  remaining at 1 h: 90.8%
  remaining at 2 h: 84%
  remaining at 4 h: 110%
  remaining at 6 h: 100%
[2]
  IC50: 0.01 to 1 nM
[3]
  IC50: 0.01 to 1 nM
[4]
  % Intact Peptide Remaining: 100%

## CDATCQFRKAIDDCYYRSWHSNVPGSVFKACMKQKKKEWKAG-NH2 (disulfide 1-5, 14-31) [SEQ ID NO 77]
[1]
  remaining at 0.5 h: 97.9%
  remaining at 1 h: 106%
  remaining at 2 h: 104%
  remaining at 4 h: 89.6%
  remaining at 6 h: 110%
[5]
  inhibition of maxadilan-induced increase in DBF: statistically significant inhibition
[2]
  IC50: 0.01 to 1 nM
[3]
  IC50: 0.01 to 1 nM
[4]
  % Intact Peptide Remaining: 100%

## CDATCQFRKAIDDCYYYAMHSNVPGSVWKACMKQKKKEFKAG-NH2 (disulfide 1-5, 14-31) [SEQ ID NO 150]
[1]
  remaining at 0.5 h: 117%
  remaining at 1 h: 89.7%
  remaining at 2 h: 92.1%
  remaining at 4 h: 90.2%
  remaining at 6 h: 92.8%
[4]
  % Intact Peptide Remaining: 100%

## CDATCQFRKAIDDCQKQAHHSNVPGSVFKACMKQKKKEFKAGY (disulfide 1-5, 14-31) [SEQ ID NO 164]
[1]
  remaining at 0.5 h: 94.3%
  remaining at 1 h: 113%
  remaining at 2 h: 108%
  remaining at 4 h: 106%
  remaining at 6 h: 96.5%
[4]
  % Intact Peptide Remaining: 100%

## CC[C@H](C)[C@H](NC(=O)[C@H](C)NC(=O)[C@H](CCCCN)NC(=O)[C@H](CCCNC(=N)N)NC(=O)[C@H](Cc1ccccc1)NC(=O)[C@H](CCC(N)=O)NC(=O)[C@@H]1CSSC[C@H](N)C(=O)N[C@@H](CC(=O)O)C(=O)N[C@@H](C)C(=O)N[C@@H]([C@@H](C)O)C(=O)N1)C(=O)N[C@@H](CC(=O)O)C(=O)N[C@@H](CC(=O)O)C(=O)N[C@H]1CSSC[C@@H](C(=O)N[C@@H](CCSC)C(=O)N[C@@H](CCCCN)C(=O)N[C@@H](CCC(N)=O)C(=O)N[C@@H](CCCCN)C(=O)N[C@@H](CCCCN)C(=O)N[C@@H](CCCCN)C(=O)N[C@@H](CCC(=O)O)C(=O)N[C@@H](Cc2ccccc2)C(=O)N[C@@H](CCCCN)C(=O)N[C@@H](C)C(=O)NCC(N)=O)NC(=O)C(C)(C)NC(=O)[C@H](CCCCN)NC(=O)[C@H](Cc2ccccc2)NC(=O)[C@H](C(C)C)NC(=O)[C@H](CO)NC(=O)CNC(=O)[C@@H]2CCCN2C(=O)[C@H](C(C)C)NC(=O)[C@H](CC(N)=O)NC(=O)[C@H](CO)NC(=O)[C@H](Cc2c[nH]cn2)NC(=O)[C@H](Cc2c[nH]cn2)NC(=O)[C@H](C)NC(=O)[C@H](CCC(N)=O)NC(=O)[C@H](CCCCN)NC(=O)[C@H](CCC(N)=O)NC1=O [SEQ ID NO 283]
[1]
  remaining at 0.5 h: 87.5%
  remaining at 1 h: 112%
  remaining at 2 h: 101%
  remaining at 4 h: 115%
  remaining at 6 h: 98.9%
[5]; single bolus i.v., lowest dose of 0.1 mg/kg, 5 min prior to maxadilan, 35 min post peptide treatment
  inhibition of MIIBF (dermal blood flow): statistically significant inhibition
[2]
  IC50: 1 to 100 nM
[3]
  IC50: 0.01 to 1 nM
[4]
  % Intact Peptide Remaining: 100%

## CDATCQFRKAIDDCHLLAWHANVPGSVFKACMKQKKKEFKAG-NH2 (disulfide 1-5, 14-31) [SEQ ID NO 140]
[1]
  remaining at 0.5 h: 101%
  remaining at 1 h: 91.4%
  remaining at 2 h: 93.4%
  remaining at 4 h: 107%
  remaining at 6 h: 108%
[4]
  % Intact Peptide Remaining: 100%

## CDATCQFRKAIDDCLLRAWHSNVPGSVFKACMKQKKKEFKAG-NH2 (disulfide 1-5, 14-31) [SEQ ID NO 85]
[5]
  inhibition of maxadilan-induced increase in DBF: statistically significant inhibition
[2]
  IC50: 0.01 to 1 nM
[3]
  IC50: 0.01 to 1 nM

B1: SEQ ID NO 451 (peptide)
peptide: CDATCQFRKAIDDCARQAYHSFKACMKQKKKEWKAH
modifications: disulfide 1-5, 14-25
[6]
  rPAC1 IC50 with maxadilan challenge (cAMP assay, RG-2 cells); 100 nM > B ≥ 1 nM: < 100 nM

B2: SEQ ID NO 449 (peptide)
peptide: CDATCQFRKAIDDCARQAYHSACMKQKKKEWKAGH
modifications: disulfide 1-5, 14-23
[6]
  rPAC1 IC50 with maxadilan challenge (cAMP assay, RG-2 cells); 100 nM > B ≥ 1 nM: < 100 nM

B3: SEQ ID NO 450 (peptide)
peptide: CDATCQFRKAIDDCARQAYHSFKACMKQKKKEWKH
modifications: disulfide 1-5, 14-25
[6]
  rPAC1 IC50 with maxadilan challenge (cAMP assay, RG-2 cells); 100 nM > B ≥ 1 nM: < 100 nM
